Laboratory results as given in US20240360146A1, “BRUTON'S TYROSINE KINASE AND MUTANT DEGRADER, COMPOSITION AND APPLICATION THEREOF” (HANGZHOU HEALZEN THERAPEUTICS CO., LTD., priority 2021, published 2024).

target: T1, BTK (Homo sapiens, UniProt Q06187); experiment: BTK degradation activity test in Mino cells; format: cell-based; conditions: 16 h incubation, Western blot or Elisa
T1 construct: endogenous in cells; host or cells: Mino cells
Method: Mino cell line cells were seeded at 500,000 to 1,000,000 cells/well in a 6-well plate. The compounds were diluted to different concentrations and added to the plate, and after 16 h of incubation, cells were harvested. After lysing the cells, the total protein concentration in each well was determined using the BCA method. The amount of BTK was determined using Western blot or Elisa method. The amount of undegraded BTK protein at each drug concentration was compared with the amount of BTK protein in the blank control group to calculate the degradation rate. The degradation curve was drawn based on the degradation rate at each concentration, and the half degradation concentration (DC50) was calculated by fitting.

T1 sequence (Q06187 whole entry): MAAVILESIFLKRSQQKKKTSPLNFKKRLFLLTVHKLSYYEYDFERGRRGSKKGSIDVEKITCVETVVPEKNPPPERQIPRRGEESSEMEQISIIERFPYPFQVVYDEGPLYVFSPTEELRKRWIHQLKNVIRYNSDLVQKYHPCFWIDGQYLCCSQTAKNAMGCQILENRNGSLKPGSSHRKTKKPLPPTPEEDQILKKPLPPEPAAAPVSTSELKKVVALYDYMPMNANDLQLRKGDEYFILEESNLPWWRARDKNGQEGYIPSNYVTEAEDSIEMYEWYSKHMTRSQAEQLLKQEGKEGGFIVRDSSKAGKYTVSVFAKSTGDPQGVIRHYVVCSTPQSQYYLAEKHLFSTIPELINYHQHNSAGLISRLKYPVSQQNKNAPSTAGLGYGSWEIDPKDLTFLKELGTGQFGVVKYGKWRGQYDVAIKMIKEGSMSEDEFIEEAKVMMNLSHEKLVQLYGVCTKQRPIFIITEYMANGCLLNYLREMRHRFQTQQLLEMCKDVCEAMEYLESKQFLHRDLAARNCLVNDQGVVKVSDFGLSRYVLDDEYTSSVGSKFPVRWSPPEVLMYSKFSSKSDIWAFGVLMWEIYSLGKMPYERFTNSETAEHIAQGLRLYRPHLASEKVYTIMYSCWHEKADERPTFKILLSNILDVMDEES

| SMILES | DC50 [nM] |
| --- | --- |
| CC1(c2ccc(Nc3nc(N4CCCC(N5CCN(C6CCCC6)C5=O)C4)cnc3C(N)=O)cc2)CCN(C2CN(c3ccc4c(c3)C(=O)N(C3CCC(=O)NC3=O)C4=O)C2)CC1 (stereo not shown) [Compound 001, 5-(3-(3-cyclopentyl-2-oxoimidazolin-1-yl)piperidin-1-yl)-3-((4-(1-(1-(2-(2,6-dioxopiperidin-3-yl)-1,3-dioxoisoindol-5-yl)azetidin-3-yl)-4-methylpiperidin-4-yl)phenyl)amino)pyrazin-2-carboxamide] | < 1 |
| CN1CCN([C@@H]2CCCN(c3nnc(C(N)=O)c(Nc4ccc(N5CCN(CC6CCN(c7cccc8c(C9CCC(=O)NC9=O)nn(C)c78)C6)CC5)c(F)c4)n3)C2)C1=O (stereo partly drawn) [Compound 216, 5-((4-(4-((1-(3-(2,6-dioxopiperidin-3-yl)-1-methyl-1H-indazol-7-yl)pyrrolidin-3-yl)methyl)piperazin-1-yl)-3-fluorophenyl)amino)-3-((R)-3-(3-methyl-2-oxoimidazolidin-1-yl)piperidin-1-yl)-1,2,4-triazin-6-carboxamide] | < 1 |
| CN1C(=O)N(C2CCCN(c3nnc(C(N)=O)c(Nc4ccc(C5CCN(CC6CCN(c7ccc8c(c7)C(=O)N(C7CCC(=O)NC7=O)C8=O)CC6)CC5)cc4)n3)C2)CC12CCC2 (stereo not shown) [Compound 069, 5-((4-(1-((1-(2-(2,6-dioxopiperidin-3-yl)-1,3-dioxoisoindol-5-yl)piperidin-4-yl)methyl)piperidin-4-yl)phenyl)amino)-3-(3-(5-methyl-6-oxo-5,7-diazaspirocyclo[3.4]octan-7-yl)piperidin-1-yl)-1,2,4-triazin-6-carboxamide] | < 1 |
| CN1CCN([C@@H]2CCCN(c3nnc(C(N)=O)c(Nc4ccc(C5CCN(C[C@@H]6CCN(c7cc8c(cc7F)C(=O)N(C7CCC(=O)NC7=O)C8=O)C6)CC5)cc4)n3)C2)C1=O (stereo partly drawn) [Compound 155, 5-((4-(1-(((3S)-1-(2-(2,6-dioxopiperidin-3-yl)-6-fluoro-1,3-dioxoisoindolin-5-yl)pyrrolidin-3-yl)methyl)piperidin-4-yl)phenyl)amino)-3-((R)-3-(3-methyl-2-oxoimidazolin-1-yl)piperidin-1-yl)-1,2,4-triazin-6-carboxamide] | < 1 |
| CN1CCN(C2CC3CCC2N(c2cnc(C(N)=O)c(Nc4ccc(C5CCN(C6CN(c7ccc8c(c7)C(=O)N(C7CCC(=O)NC7=O)C8=O)C6)CC5)cc4)n2)C3)C1=O (stereo not shown) [Compound 050, 3-((4-(1-(1-(2-(2,6-dioxopiperidin-3-yl)-1,3-dioxoisoindolin-5-yl)azetidin-3-yl)piperidin-4-yl)phenyl)amino)-5-(-6-(3-methyl-2-oxoimidazolin-1-yl)-2-azabicyclo[2.2.2]octan-2-yl)pyrazin-2-carboxamide] | < 1 |
| N#Cc1cc(Nc2nc(N3CCCC(N4CCN(C5CCCC5)C4=O)C3)cnc2C(N)=O)ccc1C1CCN(CC2CCN(c3ccc4c(c3)C(=O)N(C3CCC(=O)NC3=O)C4=O)C2)CC1 (stereo not shown) [Compound 042, 3-((3-cyano-4-(1-((1-(2-(2,6-dioxopiperidin-3-yl)-1,3-dioxoisoindolin-5-yl)pyrrolidin-3-yl)methyl)piperidin-4-yl)phenyl)amino)-5-(3-(3-cyclopentyl-2-oxoimidazolin-1-yl)piperidin-1-yl)pyrazin-2-carboxamide] | < 1 |
| CN1CCN([C@@H]2CCCN(c3nnc(C(N)=O)c(Nc4ccc(N5CCN(CC6CCN(c7ccc8c(C9CCC(=O)NC9=O)nn(C)c8n7)CC6)CC5)c(F)c4)n3)C2)C1=O (stereo partly drawn) [Compound 215, 5-((4-(4-((1-(3-(2,6-dioxopiperidin-3-yl)-1-methyl-1H-pyrazolyl[3,4-b]pyridin-6-yl)piperidin-4-yl)methyl)piperazin-1-yl)-3-fluorophenyl)amino)-3-((R)-3-(3-methyl-2-oxoimidazolidin-1-yl)piperidin-1-yl)-1,2,4-triazin-6-carboxamide] | < 1 |
| CN1CCN([C@@H]2CCCN(c3nnc(C(N)=O)c(Nc4ccc(N5CCN(CC#Cc6ccc(NC7CCC(=O)NC7=O)c(F)c6)CC5)c(F)c4)n3)C2)C1=O (stereo partly drawn) [Compound 228, 5-((4-(4-(3-(4-((2,6-dioxopiperidin-3-yl)amino)-3-fluorophenyl)propan-2-yn-1-yl)piperazin-1-yl)-3-fluorophenyl)amino)-3-((R)-3-(3-methyl-2-oxoimidazolidin-1-yl)piperidin-1-yl)-1,2,4-triazin-6-carboxamide] | < 1 |
| NC(=O)c1nnc(N2CCCC(N3CCN(C4COC4)C3=O)C2)nc1Nc1ccc(C2CCN(CC3CCN(c4ccc5c(c4)C(=O)N(C4CCC(=O)NC4=O)C5=O)CC3)CC2)cc1 (stereo not shown) [Compound 062, 5-((4-(1-((1-(2-(2,6-dioxopiperidin-3-yl)-1,3-dioxoisoindol-5-yl)piperidin-4-yl)methyl)piperidin-4-yl)phenyl)amino)-3-(3-(3-(oxetan-3-yl)-2-oxoimidazolin-1-yl)piperidin-1-yl)-1,2,4-triazin-6-carboxamide] | < 1 |
| CN1CCN([C@@H]2CCCN(c3nnc(C(N)=O)c(Nc4ccc(N5CCN(C[C@H]6CCN(c7ccc(N8CCC(=O)NC8=O)cc7)C6)CC5)c(F)c4)n3)C2)C1=O [Compound 151, 5-((4-(4-(((R)-1-(4-(2,4-dioxotetrahydropyrimidin-1(2H)-yl)phenyl)pyrrolidin-3-yl)methyl)piperazin-1-yl)-3-fluorophenyl)amino)-3-((R)-3-(3-methyl-2-oxoimidazolin-1-yl)piperidin-1-yl)-1,2,4-triazin-6-carboxamide] | < 1 |
| CN1CCN([C@@H]2CCCN(c3nnc(C(N)=O)c(Nc4ccc(N5CCN(CC6CCN(c7cccc8c(C(=O)NC9CCC(=O)NC9=O)cccc78)CC6)CC5)c(F)c4)n3)C2)C1=O (stereo partly drawn) [Compound 249, 5-((4-(4-((1-(5-((2,6-dioxopiperidin-3-yl)carbamoyl)naphthalen-1-yl)piperidin-4-yl)methyl)piperazin-1-yl)-3-fluorophenyl)amino)-3-((R)-3-(3-methyl-2-oxoimidazolidin-1-yl)piperidin-1-yl)-1,2,4-triazin-6-carboxamide] | < 1 |
| CC(C)N1CCN(C2CC3CC2N(c2cnc(C(N)=O)c(Nc4ccc(C5CCN(C6CN(c7ccc8c(c7)C(=O)N(C7CCC(=O)NC7=O)C8=O)C6)CC5)cc4)n2)C3)C1=O (stereo not shown) [Compound 047, 3-((4-(1-(1-(2-(2,6-dioxopiperidin-3-yl)-1,3-dioxoisoindolin-5-yl)azetidin-3-yl)piperidin-4-yl)phenyl)amino)-5-(-6-(3-isopropyl-2-oxoimidazolin-1-yl)-2-azabicyclo[2.2.1]heptan-2-yl)pyrazin-2-carboxamide] | < 1 |
| CN1CCN([C@@H]2CCCN(c3nnc(C(N)=O)c(Nc4ccc(N5CCN(C[C@@H]6CCN(c7ccc(C(=O)N[C@H]8CCC(=O)NC8=O)nc7)C6)CC5)c(F)c4)n3)C2)C1=O [Compound 154, 5-((4-(4-(((S)-1-(6-(((S)-2,6-dioxopiperidin-3-yl)carbamoyl)pyridin-3-yl)pyrrolidin-3-yl)methyl)piperazin-1-yl)-3-fluorophenyl)amino)-3-((R)-3-(3-methyl-2-oxoimidazolin-1-yl)piperidin-1-yl)-1,2,4-triazin-6-carboxamide] | < 1 |
| CN1CCN(C2CC3CC2N(c2nnc(C(N)=O)c(Nc4ccc(C5CCN(CC6CCN(c7ccc8c(c7)C(=O)N(C7CCC(=O)NC7=O)C8=O)CC6)CC5)cc4)n2)C3)C1=O (stereo not shown) [Compound 071, 5-((4-(1-((1-(2-(2,6-dioxopiperidin-3-yl)-1,3-dioxoisoindol-5-yl)piperidin-4-yl)methyl)piperidin-4-yl)phenyl)amino)-3-(6-(3-methyl-2-oxoimidazolin-1-yl)-2-azabicyclo[2.2.1]heptan-2-yl)-1,2,4-triazin-6-carboxamide] | > 1 |
| CN1CCN(C2CCCN(c3nnc(C(N)=O)c(Nc4ccc(C5CCN(C6CCN(c7ccc8c(c7)C(=O)N(C7CCC(=O)NC7=O)C8=O)CC6)CC5)cc4)n3)C2)C1=O (stereo not shown) [Compound 083, 5-((4-(1′-(2-(2,6-dioxopiperidin-3-yl)-1,3-dioxoisoindol-5-yl)-[1,4′-bipiperidin]-4-yl)phenyl)amino)-3-(3-(3-methyl-2-oxoimidazolin-1-yl)piperidin-1-yl)-1,2,4-triazin-6-carboxamide] | < 1 |
| NC(=O)c1ncc(N2CCCC(N3CCN(C4CCCC4)C3=O)C2)nc1Nc1ccc(C2CCN(CC3CCN(c4ccc5c(c4)C(=O)N(C4CCC(=O)NC4=O)C5=O)C3)CC2)cc1F (stereo not shown) [Compound 041, 5-(3-(3-cyclopentyl-2-oxoimidazolin-1-yl)piperidin-1-yl)-3-((4-(1-((1-(2-(2,6-dioxopiperidin-3-yl)-1,3-dioxoisoindolin-5-yl)pyrrolidin-3-yl)methyl)piperidin-4-yl)-2-fluorophenyl)amino)pyrazin-2-carboxamide] | < 1 |
| NC(=O)c1ncc(N2CCCC(N3CCN(C4COC4)C3=O)C2)nc1Nc1ccc(N2CCN(CC3CN(c4ccc5c(c4)C(=O)N(C4CCC(=O)NC4=O)C5=O)C3)CC2)cc1 (stereo not shown) [Compound 016, 3-((4-(4-((1-(2-(2,6-dioxopiperidin-3-yl)-1,3-dioxoisoindol-5-yl)azetidine-3-yl)methyl)piperazin-1-yl)phenyl)amino)-5-(3-(3-(oxetan-3-yl)-2-oxoimidazolin-1-yl)piperidin-1-yl)pyrazin-2-carboxamide] | < 1 |
| CN1CCN([C@@H]2CCCN(c3nnc(C(N)=O)c(Nc4ccc(N5CCN(CC6CCN(c7ccn8c(N9CCC(=O)NC9=O)cnc8c7)CC6)CC5)c(F)c4)n3)C2)C1=O [Compound 245] | < 1 |
| CN1C(=O)N(C2CCCN(c3cnc(C(N)=O)c(Nc4ccc(C5(C)CCN(C6CN(c7ccc8c(c7)C(=O)N(C7CCC(=O)NC7=O)C8=O)C6)CC5)cc4)n3)C2)C2CCCCC21 (stereo not shown) [Compound 009, 3-((4-(1-(1-(2-(2,6-dioxopiperidin-3-yl)-1,3-dioxoisoindol-5-yl)azetidin-3-yl)-4-methylpiperidin-4-yl)phenyl)amino)-5-(3-(3-methyl-2-oxooctahydro-1H-benzo[d]imidazol-1-yl)piperidin-1-yl)pyrazin-2-carboxamide] | < 1 |
